Values joined by “and” are separate entries in the source; they are usually repeats but may differ in a detail not shown here. Identical values can stand only once. Active and inactive are the calls of the source.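 Rule for the calls: active = compounds giving half or more protection of infected cells from virus-caused growth loss, again on retest; inactive = the rest.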
System: CEM cells HIV-1 protection, formazan growth assay
Assay: NCI AIDS Antiviral Assay
Settings: for IC50: measured here: growth of uninfected CEM cells
How it was run: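 Screen of anti-HIV-1 activity in human CEM cells using a formazan-based growth measurement at five drug concentrations. Hits with 50% or greater protection were repeated, and confirmation required reproducible complete protection.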

Row | SMILES | EC50 | IC50 | outcome
1 | CCCCNC(=O)/C(=C\c1ccc(OC)c(OC)c1)NC(=O)c1ccccc1 | > 200 µM | > 200 µM | 
2 | O=C1OCC(C2CCCCC2)C(Br)=C1Br (stereo unspecified) | > 200 µM | 56.2 µM | 
3 | Cc1cc(OP2(=O)NCc3ncccc3O2)ccc1Cl (stereo unspecified) | > 200 µM | > 200 µM | 
4 | NC(=O)CCNC(=O)c1ccccc1SC(=O)OCCBr | 6.31 µM | > 200 µM | 
5 | Cc1ccccc1Nc1nc2c(s1)C(=O)c1ccccc1C2=O |  |  | inactive
6 | CCOC(=O)C1=CC(C(=O)OCC)C2C=CC1N2C(=O)OC (stereo unspecified) |  |  | inactive
7 | CC1CC(C)(C)N2CCC(C(=O)N3Cc4cc5ccccc5nc4C3)C2O1 (stereo unspecified) | > 200 µM | > 200 µM | 
8 | CC(=O)N1C(Nc2nccs2)CCN1c1ccccc1 (stereo unspecified) | > 200 µM | 26.9 µM | 
9 | CCOC(=O)[C@@H]1ON2O[C@@H](OC3CCCC3(c3ccccc3)c3ccccc3)C[C@H]3OC(=O)[C@@H]1C32 (stereo partly specified) | > 200 µM | 34.7 µM | 
10 | CCOC(=O)CCC(NC(=O)c1ccc(NCc2ccc3nc(-c4ccccc4)c(Cl)nc3c2)cc1)C(=O)OCC (stereo unspecified) | > 4.79 µM | > 4.79 µM | 
11 | N=C(N)c1ccc(OCCCCCOc2ccc(C(=N)N)cc2)cc1 | > 20.4 µM | 1.29 µM | 
12 | CC(C)(C)/C(O)=C\c1nc2cc(C(F)(F)F)ccc2[nH]c1=O | > 200 µM | > 200 µM | 
13 | C[C@]12CC[C@@H]3c4cc(Br)c(O)c(Br)c4CC[C@H]3[C@@H]1CCC2=O | > 200 µM | 33.1 µM | 
14 | O=C(CC(=O)c1ccccc1)C(=O)Nc1ccc(Cl)cc1 | > 12 µM | > 12 µM | 
15 | O=C1/C(=C/c2ccccc2F)CCc2ccccc21 | > 10.7 µM | > 10.7 µM | 
16 | N#Cc1n[nH]c2nc(=S)sc(N)c12 | > 1200 µM | 891 µM | 
17 | Nc1nc(Cl)cc(OCC2(CO)CCCCC2)n1 | > 200 µM | 53.7 µM | 
18 | CCOC(=O)C(=CNC(=S)c1ccncc1)C(=O)OCC | > 200 µM | > 200 µM | 
19 | CC1(c2cccc(C3CC4(CCC3=O)OCCCCO4)c2)OCCO1 (stereo unspecified) | > 200 µM | > 200 µM | 
20 | NC(=O)N/N=C(\Cc1cc(=O)oc2cc(O)ccc12)C(=O)Nc1ccccc1C(N)=O | > 32.4 µM | > 32.4 µM | 
21 | CCN=C(CC(=O)C12CC3CC(CC(C3)C1)C2)N(CC)CC |  |  | inactive
22 | O=[N+]([O-])c1ccccc1C1SCc2nc3ccccc3n21 (stereo unspecified) | > 38.9 µM | 33.9 µM | 
23 | O=CC12C3CCC1C2C(=O)C3 (stereo unspecified) |  | > 200 µM | inactive

Row | SMILES | EC50 | IC50 | outcome
24 | Cc1ccc(-c2cc(=O)c3cc(C)c(C)c(C(=O)O)c3o2)cc1C |  |  | inactive
25 | CCOP(=O)(Cc1ccc(CP(=O)(OCC)OCC)n1C)OCC |  |  | inactive
26 | CC(=O)C1Cn2c(=O)c3cc4ccccc4cc3c(=O)n2C=C1C (stereo unspecified) | > 112 µM | > 112 µM | 
27 | CC1C(c2ccc(F)cc2)c2cc3c(cc2OC1N1CCCC1)OCO3 (stereo unspecified) | > 200 µM | 129 µM | 
28 | CSc1cnc2ccccc2c1Sc1cn(C)c2ccccc2c1=O | > 37.2 µM | 31.6 µM | 
29 | CS/C(=N/N=C/c1ccc2ccccc2n1)SS/C(=N/N=C\c1ccc2ccccc2n1)SC | > 200 µM | 178 µM | 
30 | CC(C)OP(=O)(OC(C)C)C(=Nc1ccncc1)NNc1ccc([N+](=O)[O-])cc1 | > 61.7 µM | > 61.7 µM | 
31 | CC1OC(OC2C(O)COC(OC3C(C)OC(OC4C(OC(=O)[C@]56CCC(C)(C)C[C@@H]5C5=CCC7[C@@]8(C)C[C@H](O)[C@H](OC9OC(CO)C(O)C(O)C9O)[C@@](C)(CO)[C@@H]8CC[C@@]7(C)[C@]5(C)CC6)OCC(O)C4O)C(O)C3OC3OCC(O)(CO)C3O)C2O)C(O)C(O)C1O (stereo partly specified) | > 30.2 µM | 17.8 µM | 
32 | CCc1cc2c(cc1CCCC(=O)O)CC1(Cc3ccc(C(=O)O)cc3C1)C2 (stereo unspecified) | > 200 µM | 155 µM | 
33 | CCOC(=O)/C(O)=C(/C=N/C(=S)Nc1c(CC)cccc1CC)C(=O)OCC | > 200 µM | 110 µM | 
34 | C=C1[C@@H]2CCC(C)(C)[C@H]1CCC(=O)[C@@H]2C(=O)OC | > 269 µM | 251 µM | 
35 | N#CC(C#N)=Cc1ccc(Cl)cc1 | > 72.4 µM | 66.1 µM | 
36 | C/C(O)=C/c1nc2sc(C)c(C)c2c(=O)s1 | > 200 µM | 39.8 µM | 
37 | Cc1ccc(SCC(CSCCO)OCn2cnc3c2NC(N)=NC32OCCO2)cc1 (stereo unspecified) | > 200 µM | > 200 µM | 
38 | CCC1=C(C)/C(=C/c2[nH]c(CBr)c(CC)c2C)N=C1CBr |  |  | inactive
39 | COC(=O)c1c(-c2ccccc2)c(-c2ccccc2)[nH]c(=O)c1C#N | > 200 µM | > 200 µM | 
40 | CC(C)OC(=O)c1cccnc1/C=N/O | > 1200 µM | 112 µM | 
41 | Cc1cn(C2CC(O[Si](C)(C)C(C)(C)C)C(CN(OC(=O)Oc3ccccc3)C(=O)Oc3ccccc3)O2)c(=O)[nH]c1=O (stereo unspecified) | > 200 µM | 10.2 µM | 
42 | O=c1n(C2CCCCC2)c(=C(Cl)Cl)c(=C(Cl)Cl)n1C1CCCCC1 | > 200 µM | > 200 µM | 
43 | Clc1cc2nncc(N3CC3)c2cc1Cl |  |  | inactive
44 | CC(C)C1=CC2=C[C@H](O)[C@H]3C(C)(C)CCC[C@]3(C)C2=C(O)C1=O | > 20 µM | 1.62 µM | 
45 | CC(=O)OC1C(COC(=O)c2ccccc2)OC(Nc2ncc(-c3ccc(Br)cc3)s2)C(OC(=O)c2ccccc2)C1OC(=O)c1ccccc1 (stereo unspecified) | > 200 µM | 20.4 µM | 
46 | O=S(CC1(O)CCCCC1)c1ccccc1 (stereo unspecified) |  |  | inactive

Row | SMILES | EC50 | IC50 | outcome
47 | COC(=O)C1CCC(=O)N1C(c1ccc2c(c1)OCO2)c1ccc2c(c1)OCO2 (stereo unspecified) | > 200 µM | 148 µM | 
48 | O=C(CC(c1ccccc1)c1c(O)c2ccccc2oc1=O)c1ccccc1 (stereo unspecified) | > 200 µM | 83.2 µM | 
49 | CN(C)c1ccc(C2CC(c3ccc4ccccc4c3O)=NN2)cc1 (stereo unspecified) | > 200 µM | 60.3 µM | 
50 | N#CC(C(=N/O)/C(=N\O)C(C#N)c1ccccc1)c1ccccc1 (stereo unspecified) | > 794 µM | 123 µM | 
51 | Fc1cccc(Cl)c1C1SCc2nc3ccccc3n21 (stereo unspecified) | 0.0479 µM | 3.8 µM | 
52 | CN(C)c1ccc(C(=C2C=CC(=[N+](C)C)C=C2)c2c(O)c(S(=O)(=O)O)cc3cc(S(=O)(=O)O)ccc23)cc1 |  |  | inactive
53 | CSc1nc2c(nc(N)n2C2OCC(O)C(O)C2O)c(=O)n1C (stereo unspecified) |  |  | inactive
54 | COC(=O)N[C@H](C(=O)O)C(C)O[Si](C)(C)C(C)(C)C (stereo partly specified) | > 851 µM | > 851 µM | 
55 | CCCCOCCOC(=O)C1C(C=C(C)C)C1(C)C (stereo unspecified) | > 200 µM | > 200 µM | 
56 | CCOC(=O)c1c(-c2ccc(O)c(OC)c2)c(C#N)c(=S)n(C2OC(COC(C)=O)C(OC(C)=O)C(OC(C)=O)C2OC(C)=O)c1-c1ccccc1 (stereo unspecified) | > 200 µM | 91.2 µM and 64.6 µM | 
57 | C=CC[C@@]1(C)CCCCCCCCC[C@@](C)(CC=C)C1=O | > 200 µM | 115 µM | 
58 | Cc1cc2c(cc1C)C1=C(CCC2)C(=O)C(=O)O1 | > 200 µM | 110 µM | 
59 | CCOCC1c2ccccc2CCN1Cc1c[nH]c2ccccc12 (stereo unspecified) | > 200 µM | 19.5 µM | 
60 | CCOP(=O)(OCC)C(c1ccc(F)cc1)N(C(=O)NC(F)(F)F)c1cccc(C(F)(F)F)c1 (stereo unspecified) | > 200 µM | 145 µM | 
61 | Cc1cccc(NC(=S)Nc2cccc(Cl)c2)n1 | > 200 µM | > 200 µM | 
62 | COc1cc(/C=C(\C#N)C(=O)c2ccccc2)cc(OC)c1OC | > 16.2 µM | > 16.2 µM | 
63 | COC1CC2C=C(C)/C=C/C=C/C(=O)NC(c3ccccc3)C/C=C/CCC(O)CC(=O)C2=C1O (stereo unspecified) | > 20.9 µM | 0.562 µM | 
64 | O=C1Cc2c([nH]c3ccc(Br)cc23)-c2ccccc2N1 | > 200 µM | 2.95 µM | 
65 | C=C(C)C12CC3CC/C(=N/O)C(C1)C3(N1CCOCC1)C/C2=N/O (stereo unspecified) | > 200 µM | > 200 µM | 
66 | Cc1nc2cc(F)c(F)cc2[nH]c1=O | > 200 µM | 174 µM | 
67 | CCOC(=O)NC(Nc1ccc(F)cc1F)(C(F)(F)F)C(F)(F)F | > 200 µM | > 200 µM | 
68 | O=c1[nH]c2ccccc2c(O)c1-c1ccccc1 | > 200 µM | > 200 µM | 
69 | COC1(C)CP(=O)(OC(C)C)CC(C)=C1Cl (stereo unspecified) | > 20 µM | 7.59 µM | 

Row | SMILES | EC50 | IC50 | outcome
70 | COc1cc(C(c2c(O)c3ccccc3oc2=O)c2c(O)c3ccccc3oc2=O)cc(OC)c1O | > 200 µM | 15.5 µM | 
71 | COc1cc2c3c(cccc3c1)C(=O)N(CCN(C)C)C2=O | > 200 µM | 1.26 µM | 
72 | CCN1CCC(CNC(=O)c2ccc(N)cc2)N1CC (stereo unspecified) | > 200 µM | > 200 µM | 
73 | O=C1OC(CC(=O)c2ccc(Cl)c(Cl)c2)C(Cl)=C1Cl (stereo unspecified) | > 75.9 µM | > 75.9 µM | 
74 | O=C1C=CC(=O)c2nc3c(cc21)CCC3 | > 91.2 µM | 10.5 µM | 
75 | CSc1nc(NC2OCC(O)C(O)C2O)cc(=O)n1C (stereo unspecified) |  |  | inactive
76 | S=C1SCN(C2CCCCCCCCCCC2)CN1C1CCCCCCCCCCC1 |  |  | inactive
77 | COC12CCC(C(C(=O)c3ccccc3)=C1C(=O)c1ccccc1)C(O)C2 (stereo unspecified) | > 501 µM | > 501 µM | 
78 | CCC(CCCN)Nc1cc(OC)cc2cccnc12 (stereo unspecified) | > 200 µM | 6.31 µM | 
79 | COc1ccc(-n2cnc3c(NCC(=O)O)ncnc32)cc1 | > 200 µM | > 200 µM | 
80 | CN(C)C=NCc1ccc2c(c1)OCO2 | 51.3 µM | 479 µM | 
81 | Nc1nc(Cl)cc(NCCCCCCCCNc2cc(Cl)nc(N)n2)n1 |  |  | inactive
82 | CSC(N)=Nc1cccc2ccccc12 | > 200 µM | > 200 µM | 
83 | CCC/C(Cl)=N/OC(NC(=O)OCC)(C(F)(F)F)C(F)(F)F | > 200 µM | 10 µM | 
84 | CCOC(=O)c1oc2cc(O)cc(O)c2c(=O)c1-c1ccc(OC)cc1 | > 200 µM | 21.9 µM | 
85 | COc1c(-c2ccc3c(c2)OCO3)oc2cc(O)cc(O)c2c1=O | > 200 µM | 115 µM | 
86 | CCC[CH2][Sn]([CH2]CCC)([O]C(=O)c1c(F)cccc1F)[O]C(=O)c1c(F)cccc1F | > 9.55 µM | 1.91 µM | 
87 | CCCCCCCCCCOC(=O)NCCC |  |  | inactive
88 | COc1ccc2c(c1)-c1oc3ccccc3c(=O)c1CO2 | > 200 µM | 32.4 µM | 
89 | CC(OC(=O)NCn1cc(-c2ccccc2)nn1)c1ccccc1 (stereo unspecified) | 56.2 µM | 75.9 µM | 
90 | CC(=O)OCC1OC(n2c(C)cc(-c3cccc4ccccc34)c(C#N)c2=S)C(OC(C)=O)C(OC(C)=O)C1OC(C)=O (stereo unspecified) | > 200 µM | 21.4 µM | 

From PubChem BioAssay AID179 (DTP/NCI, 2004)
